Values of other authors, collected in patent US20250268950A1, “PRENATAL SUPPLEMENT” (Arizona Board of Regents on Behalf of Arizona State …, priority 2021, published 2025).
Where two headings read alike, the source gives them in different places. One block for each compound: values may come before it.

What was measured:
[1] = for blood niacin lower than healthy non-pregnant controls: 20 mg/day, 563 US women
[2] = system: pregnant women; settings: for risk of anemia, RR: meta-analysis of 8 studies, supplementation; for decrease in anxiety symptoms / decrease in depression: RCT, 1 mg/day
[3] = system: infants
[4] = meta-analysis of 7 studies, 5-10 mg, usually repeated, imminent very preterm birth
[5] = one or more maternal doses of 10 mg
[6] = Cochrane, ≥1 g/day, 13 studies, 15,730 women
[7] = meta-analysis of 27 trials, 28,492 women
[8] = meta-analysis of seven RCTs, women with gestational diabetes

Compound: O=C(O)CCCC[C@@H]1SC[C@@H]2NC(=O)N[C@@H]21 [Biotin]
biotin levels ([1]; 30 mcg/day supplemental): sufficient to slightly increase levels of biotin above that of healthy controls
treatment of biotin deficiency ([1]; 300 mcg/day for two weeks): sufficient to treat the deficiency

Compound: C[N+](C)(C)CCO [Choline]
Tolerable Upper Limit for Pregnant Women (Table 12): 3500 mg/day
safety ([2]; 900 mg/day of choline (as phosphatidylcholine)): safe

average blood folate level ([1]; 1000 mcg/day, each trimester, 563 US women (10 ng/ml in controls)): 25 to 26 ng/mL
Compound: Nc1nc2ncc(CNc3ccc(C(=O)N[C@@H](CCC(=O)O)C(=O)O)cc3)nc2c(=O)[nH]1 [folic acid]
risk of ASD in the child, RR ([3]; meta-analysis of 6 prospective studies, maternal supplementation): 0.64
NTDs, OR ([3]; meta-analysis, multi-vitamin supplement containing folic acid): 0.67
prevalence of gestational diabetes ([2]; women with PCOS, folic acid only 1.5 mg): 54%

levels lower at end of pregnancy vs healthy non-pregnant controls ([1]; 12 mcg/day, US): 38%
decrease in serum B12 by third trimester vs first ([1]; total consumption of 2× the RDA): 30%
Compound: Cobalamin [Vitamin B12]
maternal and infant B12 levels ([1]; 50 mcg/day during pregnancy and early lactation, India): significant increases in maternal B12 levels in blood and breastmilk, and infant levels of B12
vitamin B12 levels during pregnancy ([1]; approximately 3× the RDA (diet 6 mcg + supplements 2.6 mcg), 26 women): enough to stabilize vitamin B12 levels during pregnancy

risk of childhood cancer ([3]; meta-analysis of 6 studies, infantile supplementation): no risk of childhood cancer
vitamin K level in the infant vs un-supplemented controls, times higher [1, 5]: 2
vitamin K level in the mother vs un-supplemented controls, times higher [1, 5]: 100
Compound: Vitamin K
brain bleeding, RR (non-significant) [3, 4]: 0.76
severe brain bleeding, RR [3, 4]: 0.58
vitamin K level ([1]; pregnant women with previous bariatric surgery, 10 mg per week): normal or above-normal level of vitamin K

Compound: Nc1nc2ncc(CNc3ccc(C(=O)N[C@@H](CCC(=O)O)C(=O)O)cc3)nc2c(=O)[nH]1 [Folate]
serum folate levels at postpartum ([1]; 355 mcg plus iron supplement, Scotland): sufficient to maintain median serum folate levels at postpartum that were equivalent to that of healthy non-pregnant women

Compound: O=S(=O)([O-])[O-].[Mg+2] [magnesium sulfate, reference compound]
reduction of risk of cerebral palsy ([3]; 4-6 g intravenously, mothers at high risk of preterm birth, meta-analysis of five studies): approximately 32%
maternal complications ([2]; 4-6 g intravenously): no major complications

Compound: [Ca] [Calcium]
preterm birth, RR ([3]; Cochrane, ≥1 g/day): 0.76
risk of ASD, OR ([3]; retrospective study in China): 0.48
incidence of pregnancy-induced hypertension ([2]; 120 mg (18% in control group)): 8.9%
incidence of pregnancy-induced hypertension ([2]; 240 mg (18% in control group)): 7.5%
incidence of pregnancy-induced hypertension ([2]; 1000 mg (18% in control group)): 8%
incidence of pregnancy-induced hypertension ([2]; 2000 mg (18% in control group)): 4%
cases of HELLP ([2]; 1500-2000 mg/day, two trials, 12,901 women (vs. 6 un-supplemented)): 16
risk of preeclampsia, RR ([2]; Cochrane, low-dose <1 g/day, 10 trials, 2234 women): 0.38
maternal death or serious morbidity, RR ([2]; Cochrane, ≥1 g/day): 0.80
risk of high blood pressure, RR [2, 6]: 0.65
risk of preeclampsia, RR [2, 6]: 0.45
rate of proteinuric PIH ([2]; Hong Kong, 600 mg weeks 22-32, 1200 mg/day to birth (vs. 10.7% placebo)): 5.6%
rate of non-proteinuric PIH ([2]; Hong Kong, 600 mg weeks 22-32, 1200 mg/day to birth (vs. 24% placebo)): 15%
reducing risk of preeclampsia, PIH, and hypertension ([2]; Trinidad, 510 women, 1200 mg): much more effective than 600 mg of calcium plus aspirin
gestational hypertension, RR [2, 7]: 0.70
risk of preeclampsia, RR [2, 7]: 0.51

Compound: Cc1ncc(CO)c(CO)c1O [Vitamin B6, Pyridoxine]
Tolerable Upper Limit for Pregnant Women (Table 12): 100 mg
effect on birth weight ([3]; 2 mg): sufficient to improve birth weight
dental decay during pregnancy ([2]; 20 mg/day): significantly reduced the rate of dental decay during pregnancy
symptoms of nausea ([2]; 25 mg every 8 hours for 3 days): decrease symptoms of nausea

Compound: C[Se]CC[C@H](N)C(=O)O [selenome-thionine, selenomethionine]
preeclampsia or preterm birth vs placebo ([2]; 100 i.g/day, randomized trial of 169 women): no significant differences were seen for either preeclampsia or preterm birth

blood niacin lower than healthy non-pregnant controls ([1]; first trimester): 29%
blood niacin lower than healthy non-pregnant controls ([1]; second trimester): 35%
blood niacin lower than healthy non-pregnant controls ([1]; third trimester): 38%
Compound: O=C(O)c1cccnc1 [Niacin]

Compound: CC(=O)[O-].CC(=O)[O-].[Zn+2] [zinc acetate]
benefit of zinc form ([3]; two studies): not beneficial

thiamine levels lower than non-pregnant women ([1]; multi-vitamin containing 3 mg, 563 pregnant women): approximately 31%
Compound: Cc1ncc(C[n+]2csc(CCO)c2C)c(N)n1 [Thiamine]
effect on glucose tolerance and intra-uterine growth ([2]; supplementation in pregnant women): improves their glucose tolerance, and stimulates intra-uterine growth

bound pantothenic acid as % of levels in controls ([1]; 60 mg from 4.5 months gestation, at 7.5 months): 59%
free pantothenic acid vs controls, fold higher ([1]; 60 mg from 4.5 months gestation, at 7.5 months and at term): 2
bound pantothenic acid as % of levels in controls ([1]; 60 mg from 4.5 months gestation, at term): 104%
Compound: calcium pantothenate
blood levels of pantothenic acid ([1]; 10 mg/day): slightly higher blood levels of pantothenic acid compared to non-pregnant controls

Compound: O=S(=O)([O-])[O-].[Zn+2] [zinc sulfate]
infant birth weight and head circumference ([3]; 25 mg/day, women with relatively low plasma zinc): greater infant birth weights and head circumferences
decrease of serum zinc, week 17 to week 31-36 ([1]; 20 mg, 138 Hispanic teenagers (14% non-supplemented)): 8%
decrease of plasma zinc from beginning to end of pregnancy ([1]; 25 mg/day, U.S. women with low initial plasma zinc (11% un-supplemented)): 7%
zinc levels ([1]; averaging 11 mg/day, U.S.): little effect on plasma levels but did increase hair and possibly saliva levels

increase of RBC DHA ([1]; 300 mg/day (controls decreased 10%)): 7%
increase of RBC DHA ([1]; 600 g/day group (so in the source)): 21%
Compound: CC/C=C\C/C=C\C/C=C\C/C=C\C/C=C\C/C=C\CCC(=O)O [DHA, Docosahexaenoic acid]

infant plasma vitamin K as % of formula-fed infants ([1]; lactating mothers 5 mg/day, infants 1 mg intramuscularly at birth): 50%
Compound: CC1=C(C/C=C(\C)CCC[C@H](C)CCC[C@H](C)CCCC(C)C)C(=O)c2ccccc2C1=O [phylloquinone]

vitamin A levels lower than healthy non-pregnant controls ([1]; 5000 IU/day (50% as beta carotene), first, second, third trimesters): 27%
Compound: CC1=C(/C=C/C(C)=C/C=C/C(C)=C/CO)C(C)(C)CCC1 [Vitamin A, retinol]
Tolerable Upper Limit for Pregnant Women (Table 12): 3 mg
reduction of night blindness during pregnancy ([2]; Nepal, 7000 mcg/week): 67%
risk of anemia, RR [2]: 0.81

Compound: magnesium gluconate
rate of pregnancy-induced hypertension ([2]; 184 mg/day): substantially reduced the rate of pregnancy-induced hypertension

Compound: CC(O)C(=O)[O-].CC(O)C(=O)[O-].[Zn+2] (centres unmarked) [zinc lactate]
low birth weight, preterm birth, intrauterine growth retardation ([3]; 30 mg/day): great improvements in the incidence of low birth weight, preterm birth, and intrauterine growth retardation
benefit ([3]; doses of 5 and 10 mg): no benefit
serum zinc ([1]; 30 mg): enough to slightly increase zinc levels

Compound: [Zn] [Zinc]
reduction in chance of infant impetigo ([3]; 30 mg/day): 54%
preterm birth, RR ([3]; meta-analysis of 16 randomized, controlled trials, mostly 20-30 mg): 0.86

Compound: [Se] [Selenium]
reduction of odds of preeclampsia or PIH ([2]; 60 i.g/day, 230 women in the UK): 65%
pregnancy-induced hypertension ([2]; 100 i.g during last 6-8 weeks, women at risk (vs. 23%)): 8%
gestational edema ([2]; 100 i.g during last 6-8 weeks, women at risk (vs. 33%)): 15%
postpartum depression ([2]; 100 i.g/day): treat postpartum depression
existing gestational edema cured ([2]; 100 i.g, 26 cases (1 out of 13 with placebo)): 88%
glucose, insulin, CRP, oxidative stress ([2]; 200 i.g/day for 6 weeks, 70 women with gestational diabetes): significant improvements in fasting glucose, serum insulin, C-reactive protein, and oxidative stress
rate of permanent hypothyroidism ([2]; 200 i.g/day, women at high risk (vs. 20%)): 12%
rate of postpartum thyroid deficiency ([2]; 200 i.g/day, women at high risk (vs. 49%)): 29%

Compound: omega-3 fatty acids
neonatal care admissions, RR (possibly fewer) ([3]; meta-analysis of 70 RCTs): 0.92
perinatal death, RR (possibly reduced) ([3]; meta-analysis of 70 RCTs): 0.75
macrosomia, RR (possible) [3, 8]: 0.48
newborns' hyperbilirubinemia, RR (possible) [3, 8]: 0.46
prolonged gestation (>42 weeks), RR ([3]; meta-analysis, 6 RCTs, 5141 participants): 1.61
early preterm birth (<34 weeks), RR ([3]; meta-analysis, 9 RCTs, 5204 participants): 0.58
low birth weight, RR ([3]; meta-analysis, 15 trials, 8449 participants): 0.90
preterm birth (<37 weeks), RR ([3]; meta-analysis, 26 RCTs, 10,304 participants): 0.89
mean increase in length of gestation ([3]; meta-analysis, 41 trials, 12,517 participants): 1.67 days
risk of preeclampsia, RR ([2]; meta-analysis of 14 supplementation studies): 0.82
preeclampsia, RR (possibly reduced) ([2]; meta-analysis of 70 RCTs): 0.84
reduction of depression, SMD ([2]; meta-analysis of eight studies, 638 women with perinatal depression, 1-6 g/day): 0.65
prevention of perinatal depression ([2]; meta-analysis of prophylactic supplementation studies): did not demonstrate a significant benefit
HOMA-IR, std. MD [2, 8]: −0.52
fasting plasma glucose, std. MD [2, 8]: −0.56
high-sensitivity CRP, std. MD [2, 8]: −1.14

Compound: [Cu] [Copper]
Tolerable Upper Limit for Pregnant Women (Table 18): 10 mg
decrease in anxiety symptoms ([2]; second trimester): 45%
decrease in depression ([2]; second trimester): 75%
decrease in anxiety symptoms ([2]; third trimester): 80%
decrease in depression ([2]; third trimester): 90%
copper levels ([1]; 2 mg as part of a multi-vitamin/mineral supplement, France): no difference in copper levels between treatment and placebo groups

Compound: [Fe] [Iron]
subjects in whom iron deficiency anemia was reduced ([2]; 60 mg 3×/day (180 mg total), 12 participants with IDA): 75%
reduction of iron-deficiency anemia at term ([2]; meta-analysis, 6 trials, 1088 women): 67%
reduction of iron deficiency at term ([2]; meta-analysis, 7 trials, 1256 women): 57%
reduction of maternal anemia at term ([2]; meta-analysis, 14 trials, 2199 women, mostly 30-200 mg/day): 70%
megaloblastic anemia ([2]; only iron (11% unsupplemented)): 6%

Compound: CC1=C(/C=C/C(C)=C/C=C/C(C)=C/C=C/C=C(C)/C=C/C=C(C)/C=C/C2=C(C)CCCC2(C)C)C(C)(C)CCC1 [beta-carotene]
benefit on night blindness compared with vitamin A ([2]; Nepal): about half as much benefit
risk of anemia, RR [2]: 0.81

Compound: Cc1cc2nc3c(=O)[nH]c(=O)nc-3n(C[C@H](O)[C@H](O)[C@H](O)CO)c2cc1C [Riboflavin]
cases of severe preeclampsia ([2]; 15 mg/day, Venezuela): significant decrease in the number of cases of severe preeclampsia
